Data as given in patent US9062043B2, “Fused tricyclic compounds as serine-threonine protein kinase and PARP modulators” (SENHWA BIOSCIENCES, INC., priority 2006, dated 2015).

How the values were obtained:
recombinant human PIM-1 = recombinant human PIM-1 (Homo sapiens (Human), UniProt P11309); test: PIM-1 assay (cell-free, radiometric); format: biochemical
Description: The reactions are incubated for 10 min at 30° C., quenched with 100 ul of 0.75% Phosphoric acid, then transferred to and filtered through a Phosphocellulose filter plate (Millipore). After washing each well 5 times with 0.75% Phosphoric acid, Scintilation fluid (15 ul) is added to each well. The residual radioactivity is measured using a […].

[1] = Body weight of tumor-bearing xenograft animals; format: in vivo; conditions: BC-PC3 xenograft mice, IV and IP dosing
protein kinases [2] = biological target: protein kinases (Homo sapiens, UniProt P10721, D816H); test: Kinase inhibition, percentage of activity at 0.5 μM, standardized radiometric kinase assays; format: biochemical; conditions: cKit(D816H)(h);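 note: each kinase tested separately, with activity read as 33P-labelled substrate protein captured on filters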
protein kinases [3] = biological target: protein kinases (Homo sapiens, UniProt P08069); test: as above; format: biochemical; conditions: IGF-1R(h)
protein kinases [4] = biological target: protein kinases (Homo sapiens, UniProt O14965); test: as above; format: biochemical; conditions: Aurora-A(h)
protein kinases [5] = biological target: protein kinases (Homo sapiens, UniProt Q13882); test: as above; format: biochemical; conditions: BRK(h)
protein kinases [6] = biological target: protein kinases (Homo sapiens, UniProt P09619); test: as above; format: biochemical; conditions: PDGFRβ(h)
Chain of protein kinases (Homo sapiens, UniProt P09619) (P09619 33-1106 limits assumed): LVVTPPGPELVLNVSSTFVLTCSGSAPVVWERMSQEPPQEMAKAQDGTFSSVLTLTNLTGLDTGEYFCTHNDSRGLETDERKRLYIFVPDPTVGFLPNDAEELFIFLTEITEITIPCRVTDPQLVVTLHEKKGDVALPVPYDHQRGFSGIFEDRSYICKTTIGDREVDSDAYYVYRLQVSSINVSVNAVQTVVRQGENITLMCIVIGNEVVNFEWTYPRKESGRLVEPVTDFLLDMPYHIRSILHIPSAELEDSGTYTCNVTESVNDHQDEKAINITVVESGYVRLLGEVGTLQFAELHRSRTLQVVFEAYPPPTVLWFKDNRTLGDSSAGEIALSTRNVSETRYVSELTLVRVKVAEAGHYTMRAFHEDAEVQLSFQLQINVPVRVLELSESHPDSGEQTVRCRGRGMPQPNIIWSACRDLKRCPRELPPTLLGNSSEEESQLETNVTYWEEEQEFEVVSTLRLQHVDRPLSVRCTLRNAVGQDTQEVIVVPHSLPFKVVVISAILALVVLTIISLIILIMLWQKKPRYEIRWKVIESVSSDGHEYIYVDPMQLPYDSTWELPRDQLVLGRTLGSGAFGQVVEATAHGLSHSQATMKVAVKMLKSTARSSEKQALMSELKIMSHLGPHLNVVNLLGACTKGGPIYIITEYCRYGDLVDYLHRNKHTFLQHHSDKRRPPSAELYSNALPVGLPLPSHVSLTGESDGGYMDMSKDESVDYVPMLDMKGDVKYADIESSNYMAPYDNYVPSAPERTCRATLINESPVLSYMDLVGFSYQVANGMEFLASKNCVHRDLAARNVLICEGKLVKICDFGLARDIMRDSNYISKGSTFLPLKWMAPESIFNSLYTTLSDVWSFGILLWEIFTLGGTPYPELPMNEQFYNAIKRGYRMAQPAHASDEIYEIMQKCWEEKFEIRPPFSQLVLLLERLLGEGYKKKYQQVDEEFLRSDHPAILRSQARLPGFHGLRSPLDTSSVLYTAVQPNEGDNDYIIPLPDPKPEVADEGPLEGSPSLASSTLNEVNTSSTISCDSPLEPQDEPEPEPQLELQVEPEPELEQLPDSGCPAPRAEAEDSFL

protein kinases [7] = biological target: protein kinases (Homo sapiens, UniProt P35916); test: as above; format: biochemical; conditions: Flt4(h)
Chain of protein kinases (Homo sapiens, UniProt P35916) (P35916 25-1363 limits assumed): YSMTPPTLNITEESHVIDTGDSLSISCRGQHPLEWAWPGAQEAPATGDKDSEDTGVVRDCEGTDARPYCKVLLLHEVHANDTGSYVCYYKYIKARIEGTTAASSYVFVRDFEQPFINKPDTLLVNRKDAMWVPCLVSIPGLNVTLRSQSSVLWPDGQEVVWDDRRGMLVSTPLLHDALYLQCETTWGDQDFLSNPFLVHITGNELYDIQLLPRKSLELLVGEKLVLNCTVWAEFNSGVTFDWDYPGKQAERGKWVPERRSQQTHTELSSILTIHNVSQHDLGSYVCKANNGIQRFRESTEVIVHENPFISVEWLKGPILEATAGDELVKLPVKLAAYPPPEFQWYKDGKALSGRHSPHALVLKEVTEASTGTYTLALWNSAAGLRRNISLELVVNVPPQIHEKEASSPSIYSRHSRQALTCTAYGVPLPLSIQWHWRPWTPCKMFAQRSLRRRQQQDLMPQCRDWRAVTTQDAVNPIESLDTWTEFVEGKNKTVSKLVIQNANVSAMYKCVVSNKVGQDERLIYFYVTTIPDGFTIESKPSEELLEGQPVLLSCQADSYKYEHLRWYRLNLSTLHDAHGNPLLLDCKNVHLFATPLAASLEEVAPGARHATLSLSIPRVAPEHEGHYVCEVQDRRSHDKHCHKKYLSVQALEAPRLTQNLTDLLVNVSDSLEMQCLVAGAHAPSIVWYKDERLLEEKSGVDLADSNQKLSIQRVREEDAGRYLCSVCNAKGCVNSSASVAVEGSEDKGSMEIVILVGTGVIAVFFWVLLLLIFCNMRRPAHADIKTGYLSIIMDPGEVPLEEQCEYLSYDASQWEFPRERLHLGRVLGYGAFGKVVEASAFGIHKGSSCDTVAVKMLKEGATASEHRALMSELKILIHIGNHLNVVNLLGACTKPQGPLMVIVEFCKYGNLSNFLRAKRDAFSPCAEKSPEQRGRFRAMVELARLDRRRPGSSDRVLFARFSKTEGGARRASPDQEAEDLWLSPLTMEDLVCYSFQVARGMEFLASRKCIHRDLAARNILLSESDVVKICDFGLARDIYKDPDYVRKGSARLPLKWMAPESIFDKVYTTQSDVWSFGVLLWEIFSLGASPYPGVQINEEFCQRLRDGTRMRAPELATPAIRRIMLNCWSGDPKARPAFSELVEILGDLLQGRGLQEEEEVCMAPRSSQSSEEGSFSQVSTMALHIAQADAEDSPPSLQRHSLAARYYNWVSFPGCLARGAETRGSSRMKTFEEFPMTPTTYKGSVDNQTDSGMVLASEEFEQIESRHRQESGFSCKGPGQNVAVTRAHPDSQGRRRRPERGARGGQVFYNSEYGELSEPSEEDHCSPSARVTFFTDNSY

protein kinases [8] = biological target: protein kinases (Homo sapiens, UniProt P07947); test: as above; format: biochemical; conditions: Yes(h)
protein kinases [9] = biological target: protein kinases (Homo sapiens, UniProt O43293); test: as above; format: biochemical; conditions: ZIPK(h)
protein kinases [10] = test: as above; format: biochemical; conditions: MAPK1(h)
protein kinases [11] = biological target: protein kinases (Homo sapiens, UniProt Q04759); test: as above; format: biochemical; conditions: PKC0(h)
protein kinases [12] = biological target: protein kinases (Homo sapiens, UniProt Q92630); test: as above; format: biochemical; conditions: DYRK2(h)
protein kinases [13] = biological target: protein kinases (Homo sapiens, UniProt P16234); test: as above; format: biochemical; conditions: PDGFRα(h)
protein kinases [14] = biological target: protein kinases (Homo sapiens, UniProt Q02750); test: as above; format: biochemical; conditions: MEK1(h)
protein kinases [15] = biological target: protein kinases (Homo sapiens, UniProt P04629); test: as above; format: biochemical; conditions: TrkA(h)
protein kinases [16] = biological target: protein kinases (Homo sapiens, UniProt P07332); test: as above; format: biochemical; conditions: Fes(h)
protein kinases [17] = biological target: protein kinases (Homo sapiens, UniProt P31749); test: as above; format: biochemical; conditions: PKBα(h)
protein kinases [18] = biological target: protein kinases (Homo sapiens, UniProt P06241); test: as above; format: biochemical; conditions: Fyn(h)
protein kinases [19] = biological target: protein kinases (Homo sapiens, UniProt P11362); test: as above; format: biochemical; conditions: FGFR1(h)
protein kinases [20] = biological target: protein kinases (Homo sapiens, UniProt P00519); test: as above; format: biochemical; conditions: Abl(h)
protein kinases [21] = biological target: protein kinases (Homo sapiens, UniProt O00418); test: as above; format: biochemical; conditions: eEF-2K(h)
Chain of protein kinases (Homo sapiens, UniProt O00418) (O00418 2-725 limits assumed): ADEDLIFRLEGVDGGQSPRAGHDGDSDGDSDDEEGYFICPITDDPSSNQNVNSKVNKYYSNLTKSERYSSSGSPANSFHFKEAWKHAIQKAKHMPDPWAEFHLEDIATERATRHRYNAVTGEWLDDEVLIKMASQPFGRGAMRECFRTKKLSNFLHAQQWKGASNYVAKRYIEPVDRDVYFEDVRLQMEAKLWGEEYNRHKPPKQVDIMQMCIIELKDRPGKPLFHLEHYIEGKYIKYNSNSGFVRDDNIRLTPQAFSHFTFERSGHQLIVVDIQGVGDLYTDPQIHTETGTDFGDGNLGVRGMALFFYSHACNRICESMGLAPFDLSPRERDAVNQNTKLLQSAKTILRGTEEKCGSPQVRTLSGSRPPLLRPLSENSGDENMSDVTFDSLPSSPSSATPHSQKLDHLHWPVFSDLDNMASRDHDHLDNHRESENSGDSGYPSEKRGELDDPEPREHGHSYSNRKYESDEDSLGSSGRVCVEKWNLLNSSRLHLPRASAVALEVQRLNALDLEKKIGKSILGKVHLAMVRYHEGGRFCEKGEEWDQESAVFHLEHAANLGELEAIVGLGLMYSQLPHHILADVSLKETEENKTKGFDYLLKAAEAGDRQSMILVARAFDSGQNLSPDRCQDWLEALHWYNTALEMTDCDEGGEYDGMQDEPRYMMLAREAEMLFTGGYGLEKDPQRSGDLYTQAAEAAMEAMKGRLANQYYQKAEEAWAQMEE

protein kinases [22] = biological target: protein kinases (Homo sapiens, UniProt P16234, D842V); test: as above; format: biochemical; conditions: PDGFRα(D842V)(h)
protein kinases [23] = biological target: protein kinases (Homo sapiens, UniProt Q8IW41); test: as above; format: biochemical; conditions: PRAK(h)
protein kinases [24] = biological target: protein kinases (Homo sapiens, UniProt P08631); test: as above; format: biochemical; conditions: Hck(h)
Chain of protein kinases (Homo sapiens, UniProt P08631) (P08631 2-526 limits assumed): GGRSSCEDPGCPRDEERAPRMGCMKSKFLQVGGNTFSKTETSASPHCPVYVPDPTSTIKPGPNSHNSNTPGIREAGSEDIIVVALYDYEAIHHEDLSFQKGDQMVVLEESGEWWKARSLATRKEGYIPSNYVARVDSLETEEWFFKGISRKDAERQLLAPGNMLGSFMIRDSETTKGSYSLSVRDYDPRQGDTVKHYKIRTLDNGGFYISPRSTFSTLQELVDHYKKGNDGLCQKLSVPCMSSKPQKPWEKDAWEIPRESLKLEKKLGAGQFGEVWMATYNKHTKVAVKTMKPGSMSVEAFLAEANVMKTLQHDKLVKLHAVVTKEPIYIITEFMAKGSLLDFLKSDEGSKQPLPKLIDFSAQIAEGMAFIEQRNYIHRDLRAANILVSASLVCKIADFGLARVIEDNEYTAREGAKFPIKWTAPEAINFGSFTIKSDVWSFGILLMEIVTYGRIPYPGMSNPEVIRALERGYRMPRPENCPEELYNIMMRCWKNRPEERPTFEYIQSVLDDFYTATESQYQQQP

protein kinases [25] = biological target: protein kinases (Homo sapiens, UniProt P36888, D835Y); test: as above; format: biochemical; conditions: Flt3(D835Y)(h)
protein kinases [26] = biological target: protein kinases (Homo sapiens, UniProt Q16832); test: as above; format: biochemical; conditions: DDR2(h)
Chain of protein kinases (Homo sapiens, UniProt Q16832) (Q16832 22-855 limits assumed): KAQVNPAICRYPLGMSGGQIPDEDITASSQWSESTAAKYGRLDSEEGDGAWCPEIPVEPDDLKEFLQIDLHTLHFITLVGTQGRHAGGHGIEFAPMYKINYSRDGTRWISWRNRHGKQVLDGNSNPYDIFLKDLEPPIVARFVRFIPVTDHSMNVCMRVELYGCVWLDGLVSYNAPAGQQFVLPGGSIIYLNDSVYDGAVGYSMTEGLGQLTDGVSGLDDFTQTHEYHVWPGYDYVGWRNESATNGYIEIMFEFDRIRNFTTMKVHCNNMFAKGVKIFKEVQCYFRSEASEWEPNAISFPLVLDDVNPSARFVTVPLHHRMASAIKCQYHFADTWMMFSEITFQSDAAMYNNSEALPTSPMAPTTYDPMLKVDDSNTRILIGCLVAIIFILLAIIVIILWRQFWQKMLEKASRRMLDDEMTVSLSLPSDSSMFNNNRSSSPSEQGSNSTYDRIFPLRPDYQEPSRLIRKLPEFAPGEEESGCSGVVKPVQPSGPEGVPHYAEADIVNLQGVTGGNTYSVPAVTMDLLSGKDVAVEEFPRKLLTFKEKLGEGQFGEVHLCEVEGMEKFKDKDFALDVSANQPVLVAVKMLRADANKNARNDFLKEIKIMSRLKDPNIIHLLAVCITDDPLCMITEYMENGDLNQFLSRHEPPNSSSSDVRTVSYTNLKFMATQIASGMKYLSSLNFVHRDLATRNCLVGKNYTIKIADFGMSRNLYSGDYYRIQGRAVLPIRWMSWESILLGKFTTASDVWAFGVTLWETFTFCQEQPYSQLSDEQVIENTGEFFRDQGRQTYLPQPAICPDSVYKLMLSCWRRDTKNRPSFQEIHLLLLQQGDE

protein kinases [27] = biological target: protein kinases (Homo sapiens, UniProt O15530); test: as above; format: biochemical; conditions: PDK1(h)
protein kinases [28] = biological target: protein kinases (Homo sapiens, UniProt P08922); test: as above; format: biochemical; conditions: Ros(h)
protein kinases [29] = biological target: protein kinases (Homo sapiens, UniProt P10721, V560G); test: as above; format: biochemical; conditions: cKit(V560G)(h)
protein kinases [30] = biological target: protein kinases (Homo sapiens, UniProt Q99683); test: as above; format: biochemical; conditions: ASK1(h)
protein kinases [31] = biological target: protein kinases (Homo sapiens, UniProt P12931); test: as above; format: biochemical; conditions: Src(1-530)(h)
Chain of protein kinases (Homo sapiens, UniProt P12931) (P12931 2-536 limits assumed): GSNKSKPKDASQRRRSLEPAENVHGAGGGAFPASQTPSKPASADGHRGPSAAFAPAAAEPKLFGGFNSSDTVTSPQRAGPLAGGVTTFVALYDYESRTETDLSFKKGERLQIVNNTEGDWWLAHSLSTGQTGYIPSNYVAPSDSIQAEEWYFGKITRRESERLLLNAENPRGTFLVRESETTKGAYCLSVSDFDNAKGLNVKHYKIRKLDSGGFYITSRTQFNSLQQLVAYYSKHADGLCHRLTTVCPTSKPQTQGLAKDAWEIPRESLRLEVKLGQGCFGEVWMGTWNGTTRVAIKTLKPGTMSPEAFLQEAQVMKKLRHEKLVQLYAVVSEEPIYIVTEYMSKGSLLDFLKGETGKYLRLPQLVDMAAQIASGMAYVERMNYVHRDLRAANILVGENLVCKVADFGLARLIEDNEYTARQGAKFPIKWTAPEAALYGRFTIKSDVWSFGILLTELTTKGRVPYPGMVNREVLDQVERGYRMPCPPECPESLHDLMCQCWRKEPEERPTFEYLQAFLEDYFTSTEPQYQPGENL

protein kinases [32] = biological target: protein kinases (Homo sapiens, UniProt P16591); test: as above; format: biochemical; conditions: Fer(h)
protein kinases [33] = biological target: protein kinases (Homo sapiens, UniProt Q9H422); test: as above; format: biochemical; conditions: HIPK3(h)
protein kinases [34] = biological target: protein kinases (Homo sapiens, UniProt P06493); test: as above; format: biochemical; conditions: CDK1/cyclinB(h)
protein kinases [35] = biological target: protein kinases (Homo sapiens, UniProt P35968); test: as above; format: biochemical; conditions: KDR(h)
protein kinases [36] = biological target: protein kinases (Homo sapiens, UniProt Q13177); test: as above; format: biochemical; conditions: PAK2(h)
protein kinases [37] = biological target: protein kinases (Homo sapiens, UniProt P17612); test: as above; format: biochemical; conditions: PKA(h)
protein kinases [38] = biological target: protein kinases (Homo sapiens, UniProt P11309); test: as above; format: biochemical; conditions: Pim-1(h)

With `C#Cc1cccc(Nc2nc3cc(C(=O)O)ccc3c3cncnc23)c1` [compound A2] as the compound, how does the IC50 (recombinant human PIM-1) read?
Its IC50 is 189 nM.

And the “Body weight (FIG. 4B)” value [1]?
The value was “not significantly altering body weight”.

And the activity at 0.5 µM (protein kinases [2])?
Its activity at 0.5 µM is 101%.

What about the activity at 0.5 µM (protein kinases [3]) of the same compound?
The activity at 0.5 µM was 73%.

And the activity at 0.5 µM (protein kinases [4])?
Its activity at 0.5 µM is 94%.

And the activity at 0.5 µM (protein kinases [5])?
Its activity at 0.5 µM is 110%.

What about the activity at 0.5 µM (protein kinases [6]) of the same compound?
The activity at 0.5 µM was 110%.

What about the activity at 0.5 µM (protein kinases [7]) of the same compound?
Its activity at 0.5 µM is -1%.

And the activity at 0.5 µM (protein kinases [8])?
Its activity at 0.5 µM is 109%.

And the activity at 0.5 µM (protein kinases [9])?
Its activity at 0.5 µM is 12%.

What about the “% activity at 0.5 μM” value (protein kinases [10]) of the same compound?
Its value is 95%.

And the activity at 0.5 µM (protein kinases [11])?
Its activity at 0.5 µM is 111%.

What about the activity at 0.5 µM (protein kinases [12]) of the same compound?
Its activity at 0.5 µM is 50%.

What about the activity at 0.5 µM (protein kinases [13]) of the same compound?
The activity at 0.5 µM was 109%.

And the activity at 0.5 µM (protein kinases [14])?
Its activity at 0.5 µM is 136%.

And the activity at 0.5 µM (protein kinases [15])?
Its activity at 0.5 µM is 90%.

What about the activity at 0.5 µM (protein kinases [16]) of the same compound?
Its activity at 0.5 µM is 139%.

What about the activity at 0.5 µM (protein kinases [17]) of the same compound?
The activity at 0.5 µM was 104%.

What about the activity at 0.5 µM (protein kinases [18]) of the same compound?
Its activity at 0.5 µM is 114%.

And the activity at 0.5 µM (protein kinases [19])?
The activity at 0.5 µM was 103%.

What about the activity at 0.5 µM (protein kinases [20]) of the same compound?
Its activity at 0.5 µM is 91%.

And the activity at 0.5 µM (protein kinases [21])?
The activity at 0.5 µM was 106%.

And the activity at 0.5 µM (protein kinases [22])?
Its activity at 0.5 µM is 109%.

And the activity at 0.5 µM (protein kinases [23])?
Its activity at 0.5 µM is 93%.

What about the activity at 0.5 µM (protein kinases [24]) of the same compound?
Its activity at 0.5 µM is 111%.

And the activity at 0.5 µM (protein kinases [25])?
Its activity at 0.5 µM is 17%.

What about the activity at 0.5 µM (protein kinases [26]) of the same compound?
Its activity at 0.5 µM is 109%.

What about the activity at 0.5 µM (protein kinases [27]) of the same compound?
Its activity at 0.5 µM is 110%.

What about the activity at 0.5 µM (protein kinases [28]) of the same compound?
The activity at 0.5 µM was 110%.

And the activity at 0.5 µM (protein kinases [29])?
The activity at 0.5 µM was 111%.

What about the activity at 0.5 µM (protein kinases [30]) of the same compound?
Its activity at 0.5 µM is 116%.

And the activity at 0.5 µM (protein kinases [31])?
The activity at 0.5 µM was 101%.

What about the activity at 0.5 µM (protein kinases [32]) of the same compound?
Its activity at 0.5 µM is 103%.

And the activity at 0.5 µM (protein kinases [33])?
Its activity at 0.5 µM is 10%.

What about the activity at 0.5 µM (protein kinases [34]) of the same compound?
The activity at 0.5 µM was 52%.

What about the activity at 0.5 µM (protein kinases [35]) of the same compound?
Its activity at 0.5 µM is 67%.

What about the activity at 0.5 µM (protein kinases [36]) of the same compound?
Its activity at 0.5 µM is 112%.

What about the activity at 0.5 µM (protein kinases [37]) of the same compound?
The activity at 0.5 µM was 90%.

And the activity at 0.5 µM (protein kinases [38])?
Its activity at 0.5 µM is 27%.
